Test results as given in PubChem BioAssay AID1918953 (Molecular Pharmacology Branch, DTP, NCI, 2023).
Values joined by “and” are separate entries in the source; they are usually repeats but may differ in a detail not shown here. Identical values can stand only once.

Tested on: MDA-MB-231 complex spheroid viability
Assay: Anticancer human tumor MDA-MB-231/ATCC cell line growth inhibition;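 also: drug exposure lasted 7 days starting on day 3 of spheroid growth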
Settings: for viability, T/C: stronger effect = lower value
Procedure, shortened: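 Drug combinations with the LSD1 inhibitor iadademstat tested on tumor cells co-cultured as spheroids with endothelial cells and mesenchymal stem cells. Concentrations descended in half-log increments from clinical Cmax or 10 microM.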

[1] = curve of first compound, second compound 0.1 µM
[2] = curve of first compound, second compound 0.316 µM
[3] = curve of first compound, second compound 1 µM
[4] = curve of first compound, second compound 3.16 µM
[5] = curve of first compound, second compound 10 µM
[6] = second compound 0.1 µM, first compound 0.0316 µM
[7] = second compound 0.1 µM, first compound 0.1 µM
[8] = second compound 0.316 µM, first compound 0.0316 µM
[9] = second compound 0.316 µM, first compound 0.1 µM
[10] = second compound 1 µM, first compound 0.0316 µM
[11] = second compound 1 µM, first compound 0.1 µM
[12] = second compound 3.16 µM, first compound 0.0316 µM
[13] = second compound 3.16 µM, first compound 0.1 µM
[14] = second compound 10 µM, first compound 0.0316 µM
[15] = second compound 10 µM, first compound 0.1 µM

Nc1ncn(C2CC(O)C(CO)S2)c(=O)n1 (stereo not drawn)
viability, T/C (compound 0.000949 µM): 90.3% and 85% | viability, T/C (compound 0.003 µM): 72.3% and 68.7% | viability, T/C (compound 0.00949 µM): 61% and 45.8% | viability, T/C (compound 0.03 µM): 37.2% and 31.3% | viability, T/C (compound 0.0949 µM): 20.2% and 19.9% | viability, T/C (compound 0.3 µM): 11.1% and 9.34% | IC50 (curve of compound): 0.0148 µM and 0.0083 µM

Nc1ncn(C2CC(O)C(CO)O2)c(=O)n1 (stereo not drawn)
viability, T/C (compound 0.00316 µM): 99.5% and 83.9% | viability, T/C (compound 0.01 µM): 95.3% and 91.9% | viability, T/C (compound 0.0316 µM): 83.2% and 87.7% | viability, T/C (compound 0.1 µM): 75.1% and 78.5% | viability, T/C (compound 0.316 µM): 64.4% and 69.5% | viability, T/C (compound 1 µM): 53.7% and 56.2% | IC50 (curve of compound): > 1 µM

CC1COCCN1c1cc(C2(S(C)(=N)=O)CC2)nc(-c2ccnc3[nH]ccc23)n1 (stereo not drawn)
viability, T/C (compound 0.0316 µM): 105% and 111% | viability, T/C (compound 0.1 µM): 98.6% and 111% | viability, T/C (compound 0.316 µM): 79.9% and 109% | viability, T/C (compound 1 µM): 53.7% and 62% | viability, T/C (compound 3.16 µM): 36.3% and 31.3% | viability, T/C (compound 10 µM): 28.1% and 24% | IC50 (curve of compound): 1.28 µM and 1.53 µM

O=C(c1cc(Cc2n[nH]c(=O)c3ccccc23)ccc1F)N1CCN(C(=O)C2CC2)CC1 + NC1CC1c1ccc(-c2cccc(O)c2)cc1
IC50 [1]: 1.73 µM | IC50 [2]: 0.522 µM | IC50 [3]: 0.378 µM | IC50 [4]: 0.349 µM | IC50 [5]: < 0.0316 µM | viability, T/C [6]: 71.6% | viability, T/C [7]: 64.2% | viability, T/C (second compound 0.1 µM, first compound 0.316 µM): 67% | viability, T/C (second compound 0.1 µM, first compound 1 µM): 56.1% | viability, T/C (second compound 0.1 µM, first compound 3.16 µM): 42.7% | viability, T/C (second compound 0.1 µM, first compound 10 µM): 27.1% | viability, T/C [8]: 65.5% | viability, T/C [9]: 60.6% | viability, T/C (second compound 0.316 µM, first compound 0.316 µM): 54.8% | viability, T/C (second compound 0.316 µM, first compound 1 µM): 44.5% | viability, T/C (second compound 0.316 µM, first compound 3.16 µM): 32.3% | viability, T/C (second compound 0.316 µM, first compound 10 µM): 24.8% | viability, T/C [10]: 59.6% | viability, T/C [11]: 56.9% | viability, T/C (second compound 1 µM, first compound 0.316 µM): 50.7% | viability, T/C (second compound 1 µM, first compound 1 µM): 44.3% | viability, T/C (second compound 1 µM, first compound 3.16 µM): 32% | viability, T/C (second compound 1 µM, first compound 10 µM): 21.1% | viability, T/C [12]: 65.3% | viability, T/C [13]: 54.1% | viability, T/C (second compound 3.16 µM, first compound 0.316 µM): 50.6% | viability, T/C (second compound 3.16 µM, first compound 1 µM): 45.1% | viability, T/C (second compound 3.16 µM, first compound 3.16 µM): 33% | viability, T/C (second compound 3.16 µM, first compound 10 µM): 22.2% | viability, T/C [14]: 45.4% | viability, T/C [15]: 38.2% | viability, T/C (second compound 10 µM, first compound 0.316 µM): 36.4% | viability, T/C (second compound 10 µM, first compound 1 µM): 37.2% | viability, T/C (second compound 10 µM, first compound 3.16 µM): 23.3% | viability, T/C (second compound 10 µM, first compound 10 µM): 19.9%

CC(C)CC(NC(=O)CNC(=O)c1cc(Cl)ccc1Cl)B1OC(=O)CC(CC(=O)O)(C(=O)O)O1 (stereo not drawn) + NC1CCC(NC2CC2c2ccccc2)CC1
IC50 [1]: 0.00726 µM | IC50 [2]: 0.00708 µM | IC50 [3]: 0.00723 µM | IC50 [4]: 0.00575 µM | IC50 [5]: 0.00398 µM | viability, T/C (second compound 0.1 µM, first compound 0.000316 µM): 105% | viability, T/C (second compound 0.1 µM, first compound 0.001 µM): 110% | viability, T/C (second compound 0.1 µM, first compound 0.00316 µM): 85% | viability, T/C (second compound 0.1 µM, first compound 0.01 µM): 36.5% | viability, T/C [6]: 5.81% | viability, T/C [7]: 0.78% | viability, T/C (second compound 0.316 µM, first compound 0.000316 µM): 98.9% | viability, T/C (second compound 0.316 µM, first compound 0.001 µM): 107% | viability, T/C (second compound 0.316 µM, first compound 0.00316 µM): 81.8% | viability, T/C (second compound 0.316 µM, first compound 0.01 µM): 36.4% | viability, T/C [8]: 5.22% | viability, T/C [9]: 0.88% | viability, T/C (second compound 1 µM, first compound 0.000316 µM): 102% | viability, T/C (second compound 1 µM, first compound 0.001 µM): 107% | viability, T/C (second compound 1 µM, first compound 0.00316 µM): 85.8% | viability, T/C (second compound 1 µM, first compound 0.01 µM): 36% | viability, T/C [10]: 4.74% | viability, T/C [11]: 0.52% | viability, T/C (second compound 3.16 µM, first compound 0.000316 µM): 83.8% | viability, T/C (second compound 3.16 µM, first compound 0.001 µM): 86.7% | viability, T/C (second compound 3.16 µM, first compound 0.00316 µM): 69.4% | viability, T/C (second compound 3.16 µM, first compound 0.01 µM): 31.7% | viability, T/C [12]: 3.87% | viability, T/C [13]: 0.63% | viability, T/C (second compound 10 µM, first compound 0.000316 µM): 57.6% | viability, T/C (second compound 10 µM, first compound 0.001 µM): 61.2% | viability, T/C (second compound 10 µM, first compound 0.00316 µM): 55.8% | viability, T/C (second compound 10 µM, first compound 0.01 µM): 25.7% | viability, T/C [14]: 2.19% | viability, T/C [15]: 0.65%

NC1CCC(NC2CC2c2ccccc2)CC1 (stereo not drawn)
viability, T/C (compound 0.1 µM): 102% [middle of 25 runs] | viability, T/C (compound 0.316 µM): 106% and 102% | viability, T/C (compound 1 µM): 99.7% [middle of 25 runs] | viability, T/C (compound 10 µM): 61% [middle of 23 runs] | IC50 (compound alone, run of 01/18/2022): > 10 µM

Cn1ncnc1C1c2n[nH]c(=O)c3cc(F)cc(c23)NC1c1ccc(F)cc1 (stereo not drawn)
viability, T/C (compound 0.000316 µM): 91% and 96.8% | viability, T/C (compound 0.001 µM): 95.8% and 101% | viability, T/C (compound 0.00316 µM): 84.4% and 94.8% | viability, T/C (compound 0.01 µM): 85.8% and 78.8% | viability, T/C (compound 0.0316 µM): 78.8% and 65.3% | viability, T/C (compound 0.1 µM): 74.7% and 72.4% | IC50 (curve of compound): > 0.1 µM
